Measurements reported in BigSolDB 2.1.

CC(C)(C)OC(=O)N[C@@H](CC(=O)O)Cc1cc(F)c(F)cc1F
solubility (mole fraction)
Conditions	in THF	in ethanol	in ethyl acetate	in methanol	in n-butanol	in n-propanol
280.15 K	0.0933	0.036	0.0409	0.053	0.0274	0.0312
285.15 K	0.105	0.042	0.0477	0.0582	0.0306	0.0374
290.15 K	0.116	0.0483	0.0556	0.0669	0.0353	0.0449
295.15 K	0.129	0.0559	0.0652	0.0751	0.0426	0.0522
300.15 K	0.144	0.0659	0.0773	0.085	0.0514	0.0619
305.15 K	0.163	0.0754	0.089	0.097	0.0619	0.0718
310.15 K	0.187	0.0894	0.104	0.111	0.0735	0.0847
315.15 K	0.215	0.103	0.121	0.129	0.0868	0.0985
320.15 K	0.244	0.125	0.14	0.151	0.103	0.116
325.15 K	0.279	0.147	0.164	0.178	0.126	0.139
330.15 K	0.322	0.173	0.188	0.211	0.154	0.162
